Where two headings read alike, the source gives them in different places.
Tests used:
NDM-1 = NDM-1 (Klebsiella pneumoniae, UniProt C7C422); assay: biochemical; assay type: biochemical; conditions: CCF2-FA fluorescence assay, 2 hours at 25° C.
Experimental: (§1) The Class B enzyme activities were measured in the presence of the test inhibitor in a fluorescence assay against a commercially available substrate consisting of a cephalosporin core linking 7-hydroxycoumarin to fluorescein (CCF2-FA). The enzyme (NDM-1, IMP-1 or VIM-1) and the substrate were diluted in 100 mM KH2PO4 buffer (pH 7) containing 0.005% Tween-20 and 10 μM ZnSO4. In the assay, the final concentration of enzyme was 1 pM, 2 pM and 30 pM for NDM-1, IMP-1 and VIM-1, respectively, and the final concentration of CCF2-FA was 1.25 μM. The test inhibitor was dissolved in dimethylsulfoxide and diluted 1:50 in the assay, resulting in a final concentration range of 20 μM to 0.00063 μM. In a 384-well microplate, the test inhibitor was incubated with the metallo-β-lactamase enzyme and the substrate for 2 hours at 25° C. Fluorescence at 460 nm following excitation at 405 nm was measured. The IC50 value was determined from semi-logarithmic plots of enzyme inhibition versus inhibitor concentration, with a curve generated using a 4-parameter fit.

IMP-1 = IMP-1 (Serratia marcescens, UniProt P52699); assay: biochemical; conditions: CCF2-FA fluorescence assay, 2 hours at 25° C.; read-out: IMP1 IC50
Experimental: as §1

VIM-1 = VIM-1 (Pseudomonas aeruginosa (strain ATCC 15692 / DSM 22644 / CIP 104116 / JCM 14847 / LMG 12228 / 1C / PRS 101 / PAO1), UniProt A0A0F7KYQ8); assay: biochemical; conditions: CCF2-FA fluorescence assay, 2 hours at 25° C.; read-out: VIM1 IC50
Experimental: as §1

VIM-2 = VIM-2 (Escherichia coli, UniProt Q5U7L7); assay: biochemical
[1] = system: Escherichia coli expressing NDM-1 (CLB30016); assay type: cell-based; conditions: with imipenem 1 μg/ml; 95% inhibition of bacterial growth
Experimental: (§2) The bacterial strains tested included the clinical strains Escherichia coil expressing NDM-1 (CLB30005, CLB30016), Serratia marcescens expressing IMP-1 (CL5741), and Klebsiella pneumoniae expressing VIM-1 (H-LMA599644). Inhibitor activity was measured in the presence and absence of imipenem in a 384-well microplate.
(§3) The clinical strains CLB30016, CL5741 and IHMA599644 were grown on trypticase soy agar containing 5% sheep's blood. The bacteria on agar plates were incubated at 35° C. with humidity overnight. The following day, individual colonies from each clinical strain were picked and resuspended in 5 ml saline to attain an OD600 of […], for CLB30016, C15741 and IHMA599644, respectively. These were further diluted 1:100 into 1.1× CAMHB and used to inoculate the test wells as described below.
(§4) Imipenem in 10 mM 3-(N-morpholino)propanesulfonic acid (MOPS, pH 7) was stored in single use aliquots at −80° C. […] On the day of the assay, 4 μl of antibiotic was added to 45 μl of bacteria followed by 1 μl of test compound and mixed by pipetting and with an orbital shaker. The concentration of antibiotic used in the assay was 1 μg/ml. Microplates were covered and incubated at 35° C. for 22 hours to 24 hours. At the end of the incubation, absorbance was determined using a spectrophotometer. The synergistic concentration of MBLI was determined by identifying the lowest concentration of test compound in the presence of a given concentration of antibiotic that was required to inhibit 95% of the growth of the bacteria. The results for Examples 1-209 are reported in Table 1, expressed as the concentration of compound that potentiated the action of antibiotic (imipenem) affecting 95% inhibition of bacterial growth (MITC95).

[2] = system: Klebsiella pneumoniae expressing VIM-1 (IHMA599644); assay type: cell-based; conditions: with imipenem 1 μg/ml; 95% inhibition of bacterial growth
Experimental: as §2, §3, §4

[3] = system: Serratia marcescens expressing IMP-1 (CL5741); assay type: cell-based; conditions: with imipenem 1 μg/ml; 95% inhibition of bacterial growth
Experimental: as §2, §3, §4

[4] = system: P. aeruginosa MB9798 (efflux+, IMP-1 plasmid); conditions: for MB9798 MITC95 P. aeruginosa uM Efflux WT: efflux + (MB9798) strain, imipenem at 2 μg/mL, in the presence of a class A, C, D serine β-lactamase inhibitor closely related to relebactam; for Efflux ratio: fold difference between efflux+ (MB9798) and efflux− (MB9799) strains
Description: (§5) The strain background is Pseudomonas aeruginosa PAO1. A wild-type (M135919) and an isogenic strain in which multiple efflux pumps have been disrupted genetically were used. The MBL IMP-1, obtained from a clinical isolate was introduced into the strain pair by the following process:
(§6) The plasmid DNA was transformed into parental MB5919 (oprD+, efflux+, inducible AmpC) and MB5890 (oprD+, efflux−, inducible AmpC) isogenic strains by electroporation.
(§7) The strain set was then used as a pair to determine the effect of metallo-β-lactamase inhibitors of Formula I on the MIC of imipenem and/or ceftazidime. A fixed concentration of antibiotic is included in standard microbroth MIC tests, usually at the CLSI breakpoint concentration, A fixed amount of a class A/C beta-lactamase inhibitor is also included to inhibit the resident Pseudomonas AmpC enzyme. A serial titration of the metallo-β-lactamase inhibitor was included and the concentration of metallo-β-lactamase inhibitor which restores susceptibility of the strain to the included antibiotic was recorded. That concentration of metallo-β-lactamase inhibitor was then compared between the two strains to determine the fold difference between the efflux+(MB9798) and efflux−(MI39799) strains, which indicates the extent to which the MBLi is subject to efflux.

[5] = system: P. aeruginosa MB9799 (efflux-, IMP-1 plasmid); assay type: cell-based, Pseudomonas aeruginosa; conditions: efflux − (MB9799) strain; imipenem at 2 μg/mL; in the presence of a class A, C, D serine β-lactamase inhibitor closely related to relebactam
Description: as §5, §6, §7

[6] = CCF2-FA fluorescence assay, read-out: VIM2 IC50

Sequence of NDM-1 (C7C422 whole entry, looked up, species assumed): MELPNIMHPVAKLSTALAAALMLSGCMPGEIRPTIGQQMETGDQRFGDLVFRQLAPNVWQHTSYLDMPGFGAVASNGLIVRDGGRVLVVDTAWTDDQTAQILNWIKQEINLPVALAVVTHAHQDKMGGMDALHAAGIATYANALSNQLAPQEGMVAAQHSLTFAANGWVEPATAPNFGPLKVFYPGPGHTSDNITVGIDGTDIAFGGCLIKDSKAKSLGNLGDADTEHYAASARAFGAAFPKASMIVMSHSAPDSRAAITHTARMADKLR
Sequence of IMP-1 (P52699 whole entry, looked up, species assumed): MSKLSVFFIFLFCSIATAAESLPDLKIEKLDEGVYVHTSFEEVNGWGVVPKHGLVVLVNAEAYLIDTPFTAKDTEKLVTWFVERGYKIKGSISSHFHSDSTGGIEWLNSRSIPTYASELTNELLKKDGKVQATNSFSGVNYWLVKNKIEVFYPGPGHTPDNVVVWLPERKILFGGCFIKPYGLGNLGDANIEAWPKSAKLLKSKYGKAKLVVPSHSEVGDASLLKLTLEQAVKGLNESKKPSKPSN

SMILES | IC50 (NDM-1) | IC50 (IMP-1) | IC50 (VIM-1) | IC50 (VIM-2; [6]) | CLB30016 E. coli MITC95 NDM [1] | IHMA599644 K. pneumoniae MITC95 VIM [2] | CL5741 S. marcescens MITC95 IMP [3] | MB9798 MITC95 P. aeruginosa uM Efflux WT [4] | Efflux ratio [4] | MB9799 MITC95 P. aeruginosa uM Efflux Mutant [5] | IC50 (VIM-2; VIM2 IC50, CCF2-FA fluorescence assay)
NC[C@@H](O)CNS(=O)(=O)c1ccc(N2CCC(C(N)CO)CC2)c(-c2nn[nH]n2)c1S(N)(=O)=O (mixture of isomers) [Example 182, 4-(4-(1-Amino-2-hydroxyethyl)piperidin-1-yl)-N1-((R)-3-amino-2-hydroxypropyl)-3-(2H-tetrazol-5-yl)benzene-1,2-disulfonamide] | 3.77 nM | 4 nM | 0.27 nM | 3.82 nM | 0.39 µM | 1.56 µM | 0.78 µM | 0.78 µM | 1.00 | 0.78 µM | 
C[C@H](CN)NS(=O)(=O)c1ccc(N2CC[C@@H](N)[C@@H](F)C2)c(-c2nn[nH]n2)c1S(N)(=O)=O (racemic) [Example 5] | 0.96 nM | 1.81 nM | 0.13 nM | 2.54 nM | 0.10 µM | 0.78 µM | 0.20 µM | 0.78 µM | 2.00 | 0.39 µM | 
NC[C@@H](O)CNS(=O)(=O)c1ccc(N2CC[C@@H](CN)[C@@H](F)C2)c(-c2nn[nH]n2)c1S(N)(=O)=O (racemic) [Example 6] | 1.12 nM | 3.38 nM | 0.17 nM | 4.19 nM | 0.20 µM | 0.78 µM | 0.20 µM | 0.78 µM | 2.00 | 0.39 µM | 
NC[C@@H]1CCN(c2ccc(S(=O)(=O)N[C@@H]3CCNC3)c(S(N)(=O)=O)c2-c2nn[nH]n2)C[C@@H]1F (racemic) [Example 7] | 0.68 nM | 3.49 nM | 0.24 nM | 4.46 nM | 0.20 µM | 0.78 µM | 0.39 µM | 0.78 µM | 2.00 | 0.39 µM | 
C[C@H](CN)NS(=O)(=O)c1ccc(N2CC[C@@H](CN)[C@@H](F)C2)c(-c2nn[nH]n2)c1S(N)(=O)=O (racemic) [Example 8] | 0.19 nM | 1.12 nM | 0.07 nM | 2.35 nM | 0.20 µM | 0.78 µM | 0.39 µM | 0.78 µM | 2.00 | 0.39 µM | 
NC[C@@H](O)CNS(=O)(=O)c1ccc(N2CCC(C(N)CO)CC2)c(-c2nn[nH]n2)c1S(N)(=O)=O (single isomer, unassigned) [Example 180] | 5.73 nM | 6.3 nM | 0.44 nM |  | 0.39 µM | 1.56 µM | 0.78 µM | 0.78 µM | 1.00 | 0.78 µM | 5.92 nM
NC[C@@H](O)CNS(=O)(=O)c1ccc(N2CCC(C(N)CO)CC2)c(-c2nn[nH]n2)c1S(N)(=O)=O (single isomer, unassigned) [Example 181] | 4.62 nM | 5.78 nM | 0.22 nM | 5.87 nM | 0.39 µM | 1.56 µM | 0.39 µM | 0.78 µM | 1.00 | 0.78 µM | 
NCC=C1CCCN(c2ccc(S(=O)(=O)NC[C@H](O)CN)c(S(N)(=O)=O)c2-c2nn[nH]n2)C1 (single isomer, unassigned; isomer a) [Example 205] | 7.59 nM | 19.7 nM | 0.34 nM | 1.07 nM | 0.78 µM | 1.56 µM | 1.56 µM | 12.50 µM | 8.00 | 1.56 µM | 
NC/C=C1\CCCN(c2ccc(S(=O)(=O)NC[C@H](O)CN)c(S(N)(=O)=O)c2-c2nn[nH]n2)C1 (single isomer, unassigned; isomer b) [Example 206] | 9.21 nM | 15.1 nM | 0.23 nM | 1.52 nM | 0.78 µM | 1.56 µM | 1.56 µM | 6.25 µM | 4.00 | 1.56 µM | 
NCC1CCN(c2ccc(S(=O)(=O)N[C@@H]3CCNC3)c(S(N)(=O)=O)c2-c2nn[nH]n2)CCN1 (stereo partly drawn) [Example 163] |  | 49 nM | 0.74 nM | 52.9 nM | 0.39 µM | 1.56 µM | 1.56 µM | 6.25 µM | 2.00 | 3.13 µM | 
NC[C@@H](O)CNS(=O)(=O)c1ccc(Nc2ncc[nH]2)c(-c2nn[nH]n2)c1S(N)(=O)=O [Example 203, (R)-4-((1H-imidazol-2-yl)amino)-N1-(3-amino-2-hydroxypropyl)-3-(2-tetrazol-5-yl)benzene-1,2-disulfonamide bis(2,2,2-trifluoroacetate)] |  | 26.4 nM | 8.5 nM | 19.6 nM | 0.20 µM | 0.78 µM | 0.78 µM | 3.13 µM | 2.00 | 1.56 µM | 

— patent US11207312B2, “Metallo-beta-lactamase inhibitors and methods of use thereof” (priority 2017, dated 2021)
